The values below come from publication PMC12434519.

The test system of series [1] is SARS-CoV-2. Description: SARS-CoV-2 viral infection assay in Huh-7.5 cells. It counts as cell-based, SARS-CoV-2 (strain: USA-WA1/2020). As to conditions: n = 3.
The nature of series [2]: Cytotoxicity in Huh-7.5 cells. The conditions noted are these: human, n = 3. It counts as cell-based, Homo sapiens.
Series [3] relates to Huh-7.5 cells. Description: Cytotoxicity in Huh-7.5 cells. It counts as cell-based, Homo sapiens. As to conditions: at ≤ 3 μM compound.
Series [4] deals with SARS-CoV-2. Details: method as in PMID 39663451. The conditions noted are these: transgenic mouse model; efficacy comparable to nirmatrelvir; cited from earlier work.
Series [5] is described as follows: SAH counterscreen inhibition (counterscreen of the MTase-Glo luminescence readout).
The target in series [6] is ZIKV NS5 (Zika virus, UniProt Q32ZE1). In words: Biochemical activity assay for ZIKV NS5 MTase (MTase-Glo). The procedure: final concentration, lab stock) during dialysis at 4 °C overnight against a buffer containing 50 mM Tris-HCl, pH 7.5, 20 mM imidazole, 500 mM NaCl, and 1 mM dithiothreitol (DTT). To remove the His6-SUMO tag, the protein sample was mixed with cOmplete His-Tag purification resin (Roche), incubated for 2 h at 4 °C, and loaded onto a gravity flow column. Since the His6-SUMO tag bound to the column material, the flow-through was collected containing untagged target protein. The target protein was further purified by a Superdex200 10/300 gel filtration column (GE Healthcare) in buffer (20 mM Tris-HCl, pH 7.5, 500 mM NaCl, 1 mM DTT). Fractions were analyzed by SDS-PAGE and Coomassie staining. Protein-containing fractions were pooled, flash-frozen in liquid nitrogen, and stored at -80 °C. […]
ZIKV NS5, sequence (Q32ZE1 2517-2781): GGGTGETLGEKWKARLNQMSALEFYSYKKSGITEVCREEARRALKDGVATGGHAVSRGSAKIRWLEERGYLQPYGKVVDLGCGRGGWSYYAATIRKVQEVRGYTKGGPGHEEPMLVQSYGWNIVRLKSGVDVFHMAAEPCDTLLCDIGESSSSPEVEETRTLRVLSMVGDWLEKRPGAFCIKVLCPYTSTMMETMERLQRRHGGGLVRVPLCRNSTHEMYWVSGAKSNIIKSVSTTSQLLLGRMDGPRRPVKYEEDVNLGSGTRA
in 1X NSP14 reaction buffer (50 mM Tris-HCl, pH 7.5, 6 mM KCl, 1.25 mM MgCl2, 1 mM DTT, and 0.01% Tween-20) in a total reaction volume of 16 µl in absence or presence of increasing inhibitor compound concentrations for 45 min at 37 °C. SAH production was monitored using the bioluminescence-based MTase-Glo™ Methyltransferase Assay kit (Promega) following manufacturer’s instructions. The luminescence signal of each reaction was recorded in relative light units (RLUs) using a Synergy Neo plate reader (BioTek, Winooski, VT). […] IC50 values (mean from at least 3 independent experiments) were calculated using the GraphPad Prism software (Version 10.1.1) and a four-parameter logistic regression.
Biochemical activity assays for the human RNMT-RAM complex and ZIKV NS5 MTases Activity assays were performed in 1x NSP14 reaction buffer. For hRNMT-RAM, we used 15 nM enzyme, 2.5 µM GpppG and 2 µM SAM. For ZIKV NS5, we used 25 nM enzyme, 3 µM […]
Gppp[…]3, and 5 µM SAM. The enzymatic reaction was initiated with the addition of the enzyme in assay buffer and incubated at RT or 37 °C for 45 min, respectively. SAH was detected using the MTase-Glo™ assay.
Differential scanning fluorimetry (DSF)

The target of series [7] is human RNMT-RAM complex (Homo sapiens, UniProt O43148). In words: Biochemical activity assay for the human RNMT-RAM complex (MTase-Glo).
human RNMT-RAM complex, sequence (O43148 whole entry): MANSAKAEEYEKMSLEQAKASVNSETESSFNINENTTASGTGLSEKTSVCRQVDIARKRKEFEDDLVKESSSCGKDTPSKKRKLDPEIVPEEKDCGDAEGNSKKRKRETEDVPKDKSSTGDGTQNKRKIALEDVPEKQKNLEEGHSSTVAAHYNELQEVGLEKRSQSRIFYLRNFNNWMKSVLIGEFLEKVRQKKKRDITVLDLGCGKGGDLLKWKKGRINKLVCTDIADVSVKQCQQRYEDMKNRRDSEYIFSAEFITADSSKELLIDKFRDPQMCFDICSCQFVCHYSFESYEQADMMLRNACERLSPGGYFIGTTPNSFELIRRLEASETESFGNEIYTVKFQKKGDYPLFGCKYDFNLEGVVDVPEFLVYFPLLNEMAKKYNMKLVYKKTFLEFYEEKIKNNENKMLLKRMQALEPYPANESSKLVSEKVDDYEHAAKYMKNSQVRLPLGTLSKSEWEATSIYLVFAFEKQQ
human RNMT-RAM complex, sequence (Q9BTL3 whole entry partner): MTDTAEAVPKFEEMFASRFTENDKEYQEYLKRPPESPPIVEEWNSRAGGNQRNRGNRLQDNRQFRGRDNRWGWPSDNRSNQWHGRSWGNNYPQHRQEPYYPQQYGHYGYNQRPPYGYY
The mark [8] stands for this setting: fit of concentration-response curve.

Where two headings read alike, the source gives them in different places. Some results are limits rather than exact numbers.

Consider `Cc1cc(S(=O)(=O)c2cc(C(=O)NCc3c(F)ccc4cnn(C5CC5)c34)n(C)c2C)cc2cn[nH]c12` [TDI-016037], for which the EC50 in series [1] (Huh-7.5 cells, read-out: Anti-SARS-CoV-2 activity EC50) is 8 nM; in series [1] (Severe acute respiratory syndrome coronavirus 2, Huh7.5, read-out: Anti-SARS-CoV-2 activity EC50, Huh-7.5 cells) it was 8.6 nM. This molecule also showed a CC50 in series [2] of at least 3000 nM. Further, the Cytotoxicity result in series [3] is “no cytotoxicity was detected”.

With `Cc1c(S(=O)(=O)N2CCc3[nH]ncc3C2)cc(C(=O)NCc2c(F)ccc3occc23)n1C` [TDI-015051], the “Inhibition of viral replication in vivo” value in series [4] is on record as “inhibited viral replication”.

`Cc1nc(C)c(C(=O)NCc2ccc(CNC(=O)c3ccc(O)c(F)c3)cc2)nc1C` [RU-0834080, CC1=NC(C)=C(C)N=C1C(=O)NCC1=CC=C(CNC(=O)C2=CC(F)=C(O)C=C2)C=C1]: the “SAH counterscreen inhibition: Maximum response” value in series [5] (LUM % inhibition) was 16.2%. For the same molecule, the “SAH counterscreen inhibition: Hill slope” value in series [5] (setting [8]) is given as -2.71. Also, the IC50 was above 125000 nM in series [5] (read-out: SAH counterscreen inhibition: IC50, LUM % inhibition); above 250000 nM in series [6] (LUM % inhibition); above 250000 nM in series [7] (LUM % inhibition, read-out: hRNMT-RAM inhibition: IC50). The Emax in series [6] (0.75 h, LUM % inhibition, read-out: ZIKV NS5 inhibition: Maximum measured) was 18.4%; in series [7] (read-out: hRNMT-RAM inhibition: Maximum response) it was 23.1%. For the same molecule, the “ZIKV NS5 inhibition: Hill slope” value in series [6] (setting [8]) is 1.81. Moreover, in series [7] (setting [8]), the “hRNMT-RAM inhibition: Hill slope” value came to 1.28.
